Where two headings read alike, the source gives them in different places.
Assays:
[1] = target: T1, phosphorylated ATM (pATM) (Rattus norvegicus, UniProt D4ACL8); assay: pATM levels in DRGN cultures, western blot and densitometry; format: cell-based
T1 construct: Total protein was extracted from DRGN cultures and fresh DRG tissues; endogenous in cells; host or cells: primary adult rat dorsal root ganglion neurons
Protocol: Primary adult rat DRGN cultures were prepared as described by us previously (11). DRGN were dissociated using collagenase and cultured in supplemented Neurobasal-A (#10888022; NBA) containing B27 supplement (#17504044), L-glutamine (#25030081) and gentamicin (#15710064) (all from Invitrogen, Paisley, UK) at a plating density of 500/well in 8-well chamber slides (#C6932; Beckton Dickinson, Oxford, UK) pre-coated with 100 μg/ml poly-D-lysine (#P6407; Sigma, Poole, UK). […] Sigma) at 30 μM (11). […] Positive controls included pre-optimized fibroblast growth factor-2 (FGF-2) (#100-18C, Peprotech, London, UK; 10 ng/ml (11)). Cells were cultured for 4 days in a humidified chamber at 37° C. and 5% CO2 before being subjected to immunocytochemistry, as described below. Treatments were added in triplicate and repeated on 3 independent occasions (i.e. total n=9 wells/treatment) by an investigator masked to the treatment conditions. […] Tocris, Oxford, UK) were dissolved in DMSO (Sigma, Poole, UK) at stock concentrations of 10 mM for in vitro use. […] After a protein assay using the Bradford Assay Kit (#5000001; […] Proteins were then transferred onto PVDF membranes (#1EVH00005, Merck, Gillingham, UK), blocked in non-fat milk and incubated with rabbit anti-pATM ([…]) antibody (#13050, 1:200 dilution, Cell Signalling Technology, London, UK) overnight at 4° C. Membranes were then washed in Tris buffered saline (TBS) and incubated with appropriate mouse/rabbit HRP-labelled secondary antibody (#GENA934; 1:1000 dilution, GE Healthcare, Buckinghamshire, UK) and bands detected using an enhanced chemiluminescence kit (#RPN2108, GE Healthcare). Rabbit anti-β-actin antibody (#ZRB1312, 1:1000; Sigma) was used as a loading control for western blots. For densitometry, western blots were scanned into Adobe Photoshop (Adobe Systems, San Jose, CA, USA) keeping all scanning parameters the same between each blot and densitometrically analysed using the built-in gel plotting macros in ImageJ ([…].gov), as previously described (7).

primary adult rat DRGN = assay: DRGN survival and neurite outgrowth in the presence of CNS myelin extracts; format: cell-based; details: with CME
Protocol: Primary adult rat DRGN cultures were prepared as described by us previously (11). DRGN were dissociated using collagenase and cultured in supplemented Neurobasal-A (#10888022; NBA) containing B27 supplement (#17504044), L-glutamine (#25030081) and gentamicin (#15710064) (all from Invitrogen, Paisley, UK) at a plating density of 500/well in 8-well chamber slides (#C6932; Beckton Dickinson, Oxford, UK) pre-coated with 100 μg/ml poly-D-lysine (#P6407; Sigma, Poole, UK). Glial cell proliferation was inhibited in cultures using 5-fluoro-2-deoxyuridine (5-FDU; #343333; Sigma) at 30 μM (11). […] Positive controls included pre-optimized fibroblast growth factor-2 (FGF-2) (#100-18C, Peprotech, London, UK; 10 ng/ml (11)). Cells were cultured for 4 days in a humidified chamber at 37° C. and 5% CO2 before being subjected to immunocytochemistry, as described below. Treatments were added in triplicate and repeated on 3 independent occasions (i.e. total n=9 wells/treatment) by an investigator masked to the treatment conditions.
DRGN were fixed in 8-well chamber slides in situ using 4% paraformaldehyde before being subjected to immunocytochemistry with rabbit anti-βIII tubulin antibodies (#T3952; 1:200 dilution; Sigma) to detect DRGN soma and neurites, as described previously (11). Alexa-488 goat […] IgG (#A32723; 1:400 dilution; ThermoFisher, Leicester, UK) secondary antibodies were used to visualize DRGN soma and neurites using an Axioplan 2 epifluorescent microscope equipped with an AxioCam HRc and running Axiovision Software (all from Carl Zeiss, Hertfordshire, UK).
With the investigator masked to the treatment conditions, the proportion of βIII-tubulin^+ DRGN, the number of DRGN with neurites and the longest DRGN neurite length were all calculated using Axiovision Software, as described by us previously (11).

pATM (pSer 1981) = target: T2, pATM (pSer 1981) (Mus musculus, UniProt Q62388); assay: pATM levels in DRG after DC crush injury, western blot and densitometry; format: in vivo, mice; details: for pATM (pSer 1981) levels: oral 20 mg/kg once daily, DRG at 4 weeks after DC injury; for pATM inhibition in DRGN from SCI treated animals: oral, doses up to 100 mg/kg
T2 construct: L4/L5 DRG pairs were dissected out and snap frozen in liquid nitrogen; from tissue; host or cells: mouse L4/L5 dorsal root ganglia, 4 weeks after DC crush injury
Protocol: (§1) Mice were subcutaneously injected with Buprenorphine and anaesthetized using 5% isoflurane and 1.8 l/min O2. After a partial laminectomy at T8, DC were crushed bilaterally using calibrated watchmaker's forceps as described by us previously (12). Animals were dosed immediately after injury and allowed to recover in their home cage. Drugs were given every 24 hours for the duration of each experiment.
For western blot, animals were killed at 4 weeks and tissues harvested as described below. For immunohistochemistry and behavioural analysis, animals were treated up to 6 weeks after DC injury.
Methods for tissue harvesting have been described by us previously (7, 12). Briefly, for western blot analysis: animals were killed by rising concentrations of CO2 and L4/L5 DRG pairs were dissected out and snap frozen in liquid nitrogen and stored at −80° C. until required (7). For immunohistochemistry: animals were killed in rising concentrations of CO2 and intracardially perfused with 4% paraformaldehyde (7, 12). The SCI site+5 mm either side of the lesion center was dissected out and postfixed in 4% formaldehyde for 2 hr, followed by cryoprotection in a graded series of sucrose and embedded in optimal temperature cutting medium (#12678646, ThermoFisher). Sections were cut at 15 μm-thick stored at −80° C. until required.
Total protein was extracted from DRGN cultures and fresh DRG tissues as described by us previously (7, 12). Briefly, cultures/DRG tissues were washed in PBS and total protein extracted in ice-cold lysis buffer containing 20 mM HEPES, 1 mM EDTA, 150 mM NaCl, 1% NP-40 and 1 mM DTT and supplemented with protease (#P8340) and phosphatase inhibitor cocktails (#P5726) (all from Sigma). After a protein assay using the Bradford Assay Kit (#5000001; BioRad, Watford, UK), 15 μg of total protein was separated on 12% Tris-glycine SDS-PAGE gels. Proteins were then transferred onto PVDF membranes (#1EVH00005, Merck, Gillingham, UK), blocked in non-fat milk and incubated with rabbit anti-pATM (ser1981) antibody (#13050, 1:200 dilution, Cell Signalling Technology, London, UK) overnight at 4° C. Membranes were then washed in Tris buffered saline (TBS) and incubated with appropriate mouse/rabbit HRP-labelled secondary antibody (#GENA934; 1:1000 dilution, GE Healthcare, Buckinghamshire, UK) and bands detected using an enhanced chemiluminescence kit (#RPN2108, GE Healthcare). Rabbit anti-β-actin antibody (#ZRB1312, 1:1000; Sigma) was used as a loading control for western blots.
For densitometry, western blots were scanned into Adobe Photoshop (Adobe Systems, San Jose, CA, USA) keeping all scanning parameters the same between each blot and densitometrically analysed using the built-in gel plotting macros in ImageJ (ww.nihimage.nih.gov), as previously described (7).

DC axons = format: in vivo, mice; details: oral 20 mg/kg once daily; for DC axon regeneration through the lesion site: 6 weeks after injury
DC injury model of SCI [2] = assay: electrophysiology, compound action potentials across the lesion site after DC injury; format: in vivo, mice; details: oral, 6 weeks after DC injury
Protocol: as §1, with “experiment. […] Spike 2 software (Cambridge Electronic Design, Cambridge, UK) was used to process and analyse the traces and determine the CAP amplitude and CAP area for each condition.” for “experiment.”

DC injury model of SCI [3] = assay: tape sensing and removal test (sensory function) after DC injury; format: in vivo, mice; details: oral; for tape sensing and removal time: over 6 weeks after DC injury, versus controls
Protocol: (§2) Mice were subcutaneously injected with Buprenorphine and anaesthetized using 5% isoflurane and 1.8 l/min O2. After a partial laminectomy at T8, DC were crushed bilaterally using calibrated watchmaker's forceps as described by us previously (12). Animals were dosed immediately after injury and allowed to recover in their home cage. Drugs were given every 24 hours for the duration of each experiment. Tape sensing and removal and horizontal ladder crossing tests were used to detect sensory and locomotor changes after DC injury and treatment as described by us previously (7). Briefly, tape sensing and removal was tested by attaching a 15/15 mm piece of sticky tape (Kip Hochkrepp, Bocholt, Germany) onto the plantar surface of each the left paw of each mouse and recording the time taken to detect and remove the tape. For the ladder crossing test, each mouse was trained prior to DC injury to master the traversing the ladder (0.9 m long and 15.5 cm wide with randomly adjusted rungs). Animals were assessed crossing the ladder and the total number of steps and the number of left and right hind paw slips were recorded and presented as an error ratio. All of these tests were performed at 2 days after injury, then at 1 week followed by weekly tests for 6 weeks. The experimenter was masked to the treatment conditions and animals were assessed in the same order and time of day with each test performed for 3 individual trials on each occasion.

DC injury model of SCI [4] = assay: horizontal ladder crossing test (locomotor function) after DC injury; format: in vivo, mice; details: oral; for locomotor function, ladder crossing: over 6 weeks after DC injury
Protocol: as §2

ATM [5] = target: T3, ATM (Homo sapiens, UniProt Q13315); details: read-out: cell IC50; cited from earlier work
[6] = tested on: kinases within the same family; details: cited from earlier work
[7] = after oral administration; cited from earlier work
brain gliomas = details: in combination with daily ionizing radiation therapy; cited from earlier work
ATM [8] = target: T3, ATM; details: cited from earlier work
γH2Ax+ foci = details: twice weekly injections directly into the CSF, cited from earlier work
[9] = 5 nM, compared to vehicle-treated DRGN

T2 sequence (Q62388 whole entry): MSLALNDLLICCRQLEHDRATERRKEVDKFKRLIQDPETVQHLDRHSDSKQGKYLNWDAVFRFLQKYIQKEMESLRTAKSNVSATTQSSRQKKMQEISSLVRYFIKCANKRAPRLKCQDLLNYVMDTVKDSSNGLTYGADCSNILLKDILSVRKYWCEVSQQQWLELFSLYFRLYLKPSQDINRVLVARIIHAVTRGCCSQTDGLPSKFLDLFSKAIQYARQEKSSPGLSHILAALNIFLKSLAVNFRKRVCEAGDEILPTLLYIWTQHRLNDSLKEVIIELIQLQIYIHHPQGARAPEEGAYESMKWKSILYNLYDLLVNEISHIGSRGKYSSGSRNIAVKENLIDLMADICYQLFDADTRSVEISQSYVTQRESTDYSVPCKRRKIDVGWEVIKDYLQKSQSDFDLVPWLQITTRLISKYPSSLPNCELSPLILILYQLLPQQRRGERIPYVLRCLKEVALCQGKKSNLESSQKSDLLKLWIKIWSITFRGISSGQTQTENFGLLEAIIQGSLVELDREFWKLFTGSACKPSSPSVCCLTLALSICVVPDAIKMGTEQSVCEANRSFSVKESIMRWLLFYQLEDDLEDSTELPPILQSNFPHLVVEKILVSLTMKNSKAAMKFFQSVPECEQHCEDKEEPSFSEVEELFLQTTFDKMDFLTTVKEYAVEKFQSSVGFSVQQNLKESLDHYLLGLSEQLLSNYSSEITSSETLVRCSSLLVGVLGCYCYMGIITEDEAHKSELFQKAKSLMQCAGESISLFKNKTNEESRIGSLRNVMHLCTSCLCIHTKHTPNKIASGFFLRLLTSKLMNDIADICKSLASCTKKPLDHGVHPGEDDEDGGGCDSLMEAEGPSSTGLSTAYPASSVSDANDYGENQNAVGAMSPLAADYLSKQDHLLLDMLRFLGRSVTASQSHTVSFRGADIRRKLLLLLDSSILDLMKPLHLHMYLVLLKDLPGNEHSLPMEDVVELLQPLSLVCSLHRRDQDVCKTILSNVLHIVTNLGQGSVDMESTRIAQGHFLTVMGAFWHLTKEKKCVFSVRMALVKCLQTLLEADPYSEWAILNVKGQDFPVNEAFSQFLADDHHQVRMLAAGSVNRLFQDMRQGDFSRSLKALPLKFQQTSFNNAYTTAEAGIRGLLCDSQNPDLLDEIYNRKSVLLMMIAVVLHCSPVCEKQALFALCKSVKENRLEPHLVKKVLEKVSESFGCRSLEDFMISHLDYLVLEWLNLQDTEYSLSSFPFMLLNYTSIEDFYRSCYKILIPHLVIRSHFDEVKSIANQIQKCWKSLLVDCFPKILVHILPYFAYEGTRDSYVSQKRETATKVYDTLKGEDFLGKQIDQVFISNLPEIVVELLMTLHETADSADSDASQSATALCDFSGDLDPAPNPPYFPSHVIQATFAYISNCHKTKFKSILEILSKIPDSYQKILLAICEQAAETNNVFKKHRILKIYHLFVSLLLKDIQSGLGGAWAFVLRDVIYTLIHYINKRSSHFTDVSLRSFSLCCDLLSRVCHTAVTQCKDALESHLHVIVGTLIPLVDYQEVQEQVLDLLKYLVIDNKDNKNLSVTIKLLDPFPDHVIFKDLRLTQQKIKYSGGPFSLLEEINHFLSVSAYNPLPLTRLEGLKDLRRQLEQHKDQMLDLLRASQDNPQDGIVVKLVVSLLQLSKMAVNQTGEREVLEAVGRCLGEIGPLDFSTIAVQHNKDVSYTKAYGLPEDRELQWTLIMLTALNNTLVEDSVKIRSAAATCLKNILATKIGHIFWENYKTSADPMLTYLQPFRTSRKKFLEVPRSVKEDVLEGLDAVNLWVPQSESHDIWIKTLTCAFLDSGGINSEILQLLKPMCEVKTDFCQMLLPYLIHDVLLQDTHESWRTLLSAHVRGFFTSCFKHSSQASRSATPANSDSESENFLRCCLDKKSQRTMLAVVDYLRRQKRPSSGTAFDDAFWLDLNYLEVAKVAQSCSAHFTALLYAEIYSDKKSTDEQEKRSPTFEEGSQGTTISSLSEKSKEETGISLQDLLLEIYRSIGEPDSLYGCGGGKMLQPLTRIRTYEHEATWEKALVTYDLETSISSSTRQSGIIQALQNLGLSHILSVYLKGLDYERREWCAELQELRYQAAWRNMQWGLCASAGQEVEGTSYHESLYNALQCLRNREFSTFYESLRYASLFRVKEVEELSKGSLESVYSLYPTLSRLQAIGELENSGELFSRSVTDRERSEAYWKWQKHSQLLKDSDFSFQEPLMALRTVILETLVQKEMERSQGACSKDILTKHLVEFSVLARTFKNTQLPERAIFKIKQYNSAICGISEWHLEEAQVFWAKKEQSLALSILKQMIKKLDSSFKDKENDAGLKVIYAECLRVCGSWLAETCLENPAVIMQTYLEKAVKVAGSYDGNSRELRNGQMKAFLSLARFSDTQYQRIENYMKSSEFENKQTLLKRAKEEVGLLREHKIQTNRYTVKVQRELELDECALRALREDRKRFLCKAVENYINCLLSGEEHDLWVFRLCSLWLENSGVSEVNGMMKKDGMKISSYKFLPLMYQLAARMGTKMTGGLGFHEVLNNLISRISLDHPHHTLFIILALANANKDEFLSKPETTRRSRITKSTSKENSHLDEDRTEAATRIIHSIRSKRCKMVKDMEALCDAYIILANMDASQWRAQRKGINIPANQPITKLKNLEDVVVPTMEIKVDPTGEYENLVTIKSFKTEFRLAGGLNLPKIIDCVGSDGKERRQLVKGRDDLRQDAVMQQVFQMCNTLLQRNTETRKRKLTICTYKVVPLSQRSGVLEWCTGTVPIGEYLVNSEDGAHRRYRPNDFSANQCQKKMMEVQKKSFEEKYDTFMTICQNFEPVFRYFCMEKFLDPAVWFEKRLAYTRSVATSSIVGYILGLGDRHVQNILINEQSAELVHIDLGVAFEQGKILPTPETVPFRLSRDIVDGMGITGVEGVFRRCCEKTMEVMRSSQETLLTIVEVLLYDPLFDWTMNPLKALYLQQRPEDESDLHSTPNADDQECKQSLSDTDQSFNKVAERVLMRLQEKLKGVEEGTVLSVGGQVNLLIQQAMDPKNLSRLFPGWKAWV

## CC(C)n1c(=O)n(C)c2cnc3ccc(-c4ccc(OCCCN5CCCCC5)nc4F)cc3c21 [AZD1390, 8-[2-Fluoro-6-[3-(I-piperidyl)propoxy]-3-pyridyl]-1-isopropyl-3-methyl-imidazo[4,5-c]quinolin-2-one]
[1]; 5 nM, compared to vehicle-treated (0 nM) cultures
  reduction of pATM levels: 70%
[1]; concentrations 1-10 nM tested
  lowest most effective dose for reduction of pATM levels: 5 nM
Primary adult rat DRGN; [9]
  increase of DRGN survival: 60%
  increase of longest neurite length: 81%
  increase of percentage of DRGN with neurites: 88%
pATM (pSer 1981)
  pATM (pSer 1981) levels: significant suppression
DC axons
  DC axon regeneration through the lesion site: promoted DC axon regeneration through the lesion site and into the rostral cord
DC axons; up to 1 mm beyond the lesion site, compared to vehicle-treated mice
  axons regenerating beyond the lesion site: up to 12%
DC injury model of SCI [2]
  CAP amplitudes: significantly improved
  CAP areas: significantly improved
  CAP trace: return of a significant CAP trace
DC injury model of SCI [3]; after injury
  time for sensory function to return to baseline of sham-uninjured animals: ≤ 4 weeks
DC injury model of SCI [3]
  tape sensing and removal time: significantly shorter time than controls
DC injury model of SCI [4]
  time to recover to sham-uninjured control levels, ladder crossing: ≤ 4 weeks
  locomotor function, ladder crossing: marked improvement
ATM [5]
  IC50: 0.78 nM
[6]
  selectivity over kinases within the same family: > 10,000 fold
[7]
  time bioavailable in the brain: at least 8 hours
Brain gliomas
  tumor response and survival: induced tumor regression and prolonged survival
ATM [8]
  IC50: 0.5 to 3 nM

## C[C@@H]1CN(CC(=O)Nc2ccc3c(c2)Cc2cccc(-c4cc(=O)cc(N5CCOCC5)o4)c2S3)C[C@H](C)O1 [KU-60019]
[1]
  ATM activation in vitro: able to suppress ATM activation in vitro
pATM (pSer 1981); intrathecal delivery after injury
  suppression of pATM levels: 81%
pATM (pSer 1981)
  pATM (pSer 1981) levels: no effect
  pATM inhibition in DRGN from SCI treated animals: no pATM inhibition
pATM (pSer 1981); listed as KU6000-19
  pATM inhibition in DRGN from SCI treated animals: no effect
DC axons
  DC axon regeneration through the lesion site: not oral KU-60019 promoted DC axon regeneration
DC injury model of SCI [3]
  tape sensing and removal time: no effect
DC injury model of SCI [4]
  locomotor function, ladder crossing: a significant deficit remained
γH2Ax+ foci; after SCI
  γH2Ax+ foci: reduced
γH2Ax+ foci
  functional recovery after SCI: promoted significant functional recovery

## FGF-2: fibroblast growth factor-2, positive control (Peprotech), 10 ng/ml
Primary adult rat DRGN; FGF-2 10 ng/ml positive control, KU-60019 at concentrations of a recent study
  DRGN survival and neurite outgrowth in comparison with AZD1390: inferior compared to AZD1390

Source: patent US20240408077A1, “ATM KINASE INHIBITORS FOR USE IN THE TREATMENT OF NEUROLOGICAL CONDITIONS” (The University of Birmingham, priority 2021, published 2024)
